The results in this text go back to US6495588B2, “Scytonemin and methods of using thereof” (The Regents of the University of California, priority 2000, dated 2002).

The test system of assay [1] is PMA-induced cell proliferation in mouse ear epidermis. The assay can be described thus: Mouse ear cell proliferation assay (IUdR incorporation, PCNA histology). The assay is classed as in vivo. The procedure: To determine the efficacy of scytonemin as an anti-proliferative agent in vivo, the following assay was conducted. On day one, test compounds were delivered in 10 μl 20% DMSO, 80% acetone and applied to both the inner and outer pinnae of left ears (20 μl total) of male, Swiss Webster mice (Taconic Farms, Germantown, N.Y.). The right ears received only vehicle. One hour post test compound application, 4 μg/ear PMA (Sigma, St. Louis, Mo.) in 10 μl acetone was applied to the inner pinnae of each left ear and 10 μl acetone was applied to each right ear. Four hours post test compound application, the each test compound was again applied in the same manner. On day two, the test compounds were applied twice with a four-hour interval between each application. On day three, the test compounds and PMA were applied as they had been on day one.
One hour after the final test compound applications, each mouse was injected with 0.6 ml of a solution containing the thymidine analogue, 5-iodo-I^125-2′-deoxyuridine (IUdR) (2 μCi-I^125/mouse) and, to inhibit the endogenous deoxythymidilic acid synthetase, fluorodeoxyuridine (FUdR) ([…]). This IUdR/FUdR solution was made up in RPMI 1640 media. Eighteen hours post injection, the mice were euthanized via CO2 inhalation, the ears were excised and soaked individually in a 70% EtOH solution overnight.
IUdR incorporation was then measured using a Beckman Gamma counter, Model 5500B. […] Therefore, scytoneman compounds may be used to reduce, prevent, inhibit, modulate, or attenuate cell proliferation.
Additionally, immunostaining with Proliferating Cell Nuclear Antigen (PCNA) was used as a proliferation marker to identify proliferating cells. PCNA is a cofactor for DNAt […]. Expression levels of PCNA fluctuate over the cell cycle. […] Low expression levels of PCNA indicate non-cycling cells.
Histological analysis was used to determine the effect of scytonemin on the thickness of the epidermal layer of skin, the mitotic index of cells in the epidermal layer, the number of cells in the epidermis, and the amount of immune cell infiltration. PCNA antibodies were used to detect the presence of PCNA in cells and a peroxidase-Ni/DAB development system was used to stain PCNA-positive cells black and hematoxlin was used as a nuclear blue counterstain using conventional methods.

In another assay the target is T1, PKA (Bos taurus, UniProt P00517).
T1 construct: 0.5 μg PKA (from bovine heart supplied by Sigma, St. Louis, Mo.); purchased Sigma, St. Louis, Mo; host or cells: bovine heart tissue
The assay can be described thus: PKA activity assay. It counts as biochemical, bovine. On the procedure: RhPKCβ2 was expressed in a baculovirus expression system. Kinase reactions were conducted in 50 μl comprising 0.5 μg rhPKC diluted in 2 mM Tris, and 100 μM EGTA and reaction buffer comprising substrate (0.9 mM EGTA, 1.1 mM CaCl2, 0.01 mg/ml glycogen synthase peptide (H-[…]OH) (Bachem, King of Prussia, Pa.), 40 μg/ml L-α-Phosphatidyl-L-serine, 1 μg/ml 1,3-Diolen, 10 mM MgCl2, pH 7.5). To assess PKA activity, kinase reactions were conducted in 50 μl comprising 0.5 μg PKA (from bovine heart supplied by Sigma, St. Louis, Mo.) diluted in 10 mM MOPS, pH 6.5 and reaction buffer comprising substrate (50 mM MOPS, pH 6.5, 10 mM MgCl2, 0.1 mg/ml Histone-IIA (Sigma, St. Louis, Mo.), 1 μM cAMP). An ATP solution (0.01 μM ATP and 0.5 μCi of [γ^33-P] ATP) was then added to the wells in both assay systems. Inhibitors were added at the indicated concentrations with a final DMSO concentration of 10%. Reactions were allowed to proceed for 20 minutes at 37° C. and were stopped with 25 mM EDTA. The reactions were spotted onto filter paper, washed four times in a beaker comprising 75 mM phosphoric acid and rinsed with acetone. Filters were dried and put in scintillation vials with fluid and counted.

The next assay has as its target T2, GST-Myt1 (Homo sapiens, UniProt Q99640).
T2 construct: The Myt1 gene was truncated after amino acid 379 and just prior to the membrane-anchoring domain; made in house; host or cells: Sf9 (baculovirus, pFASTBAC)
T2 sequence (Q99640 1-379): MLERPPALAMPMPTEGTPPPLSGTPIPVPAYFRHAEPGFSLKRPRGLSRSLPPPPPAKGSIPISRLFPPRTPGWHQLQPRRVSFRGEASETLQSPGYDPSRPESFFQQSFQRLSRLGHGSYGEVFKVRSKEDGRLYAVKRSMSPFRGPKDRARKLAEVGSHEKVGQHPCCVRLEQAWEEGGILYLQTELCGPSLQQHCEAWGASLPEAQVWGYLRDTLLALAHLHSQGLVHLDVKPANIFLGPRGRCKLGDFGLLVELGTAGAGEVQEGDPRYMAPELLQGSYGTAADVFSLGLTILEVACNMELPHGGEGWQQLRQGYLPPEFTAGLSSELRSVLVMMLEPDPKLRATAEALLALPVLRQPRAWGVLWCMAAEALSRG
The assay can be described thus: GST-Myt1 autophosphorylation DELFIA assay. The assay is classed as biochemical. Particulars: 1 μM ATP. The source says: To determine the effect of SCY on GST-Myt1 activity, a rh-GST-Myt1 expression vector was constructed to include gst fused to the amino terminus of a truncated human Myt1 gene via a linker comprising a thrombin cleavage site. The Myt1 gene was truncated after amino acid 379 and just prior to the membrane-anchoring domain. The construct was cloned into the baculovirus expression system, pFASTBAC (Gibco-BRL, Gaithersburg, Md.).
Spodoptera frugiperda 9 (Sf9) cells were infected with the virus and grown for three days before purifying as described in Roshak et al. (2000) for GST-PLK1 and GST-cdc25C to 75% purity as determined by SDS-PAGE analysis and Coomassie Blue staining. Dissociative enhanced lanthanide fluorescence immunoassays (DELFIA) (Wallac OY, Turku, Finland) were performed in 50 μl/well with 0.25 μg GST-Myt1, in reaction buffer (50 mM HEPES, pH 7.4, 2 mM Mn(OAc)2, 1 μM ATP, 1 mM DTT (final reaction concentrations)), and SCY (1 nM to 10 μM final reaction concentration). […]
Reactions were allowed to proceed at room temperature with shaking for 20 minutes and were stopped with the addition of EDTA to give a final concentration of 20 mM, and the protein was allowed to bind to the wells for an additional 40 minutes. […] The plate was then read on the 1420 VICTOR plate counter from Wallac, Inc.

As a reminder, the IC50 is the concentration at which inhibition is half-maximal. For scytonemin, the “cells actively proliferating (PCNA staining)” value in assay [1] (+PMA 4 μg/ear, scytonemin 1 mg/ear, dexamethasone 0.15 mg/ear) is given as “about 60%”. Moreover, the “mitotic index of epidermal cells” value in assay [1] (PMA-treated mouse ears, 5% SCY) is “reduces the mitotic index”. In addition, the “cell proliferation in vivo (IUdR incorporation)” value in assay [1] (topical, PMA 4 μg/ear) is “effectively reduced or prevented cell proliferation in vivo”. For the same substance, the IC50 at PKA was greater than 10000 nM; against GST-Myt1 it was roughly 1000 nM. The “concentration at which PKA activity is significantly affected or inhibited” value at PKA (0.01 μM ATP) is no less than 10 µM.
